Measurements as given in US20220047596A1, “COMBINATION OF PARP INHIBITOR AND BRD4 INHIBITOR FOR THE TREATMENT OF CANCER” (Board of Regents, The University of Texas System, priority 2018, published 2022).

Key:
cancer cell lines = test: Viability measurement (PrestoBlue, 96 hr) with CalcuSyn combination index; type: cell-based, Human; set-up: synergy with JQ1 at fixed PARPi concentration: dose or concentration left out as unconfirmed; settings: for synergy with JQ1 at fixed PARPi concentration: 96 hr, HOC1 cells; for synergistic effects in combinations with BRD4i (JQ1): similar combination indices indicative of synergy
Experimental: (§1) Viability Measurements: Five thousand cells were seeded into sterile 96-well plates and treated with indicated drug combinations for 96 hr. DMSO was used as a vehicle. PrestoBlue® Cell Viability Reagent (Thermo Fisher Scientific) was used to assess cell viability. Background values from empty wells were subtracted and data normalized to vehicle-treated control. Synergistic effects between both compounds were calculated using the Chou-Talalay equation in CalcuSyn software, which takes into account both potency (IC50) and shape of the dose-effect curve. […], and CI>1 indicates antagonism.

PARP = settings: cited from earlier work
HRD gene signature = HRD gene signature score applied to public transcriptional profiling data; settings: human or murine tumors; GEO datasets
Source text: Microarray Analysis and IPA Analysis: Gene expression datasets of GSE29799 (Zuber et al., 2011), GSE66048 (Ambrosini et al., 2015), GSE44929 (Love′ n et al., 2013), GSE85840 (Rhyasen et al., 2016), GSE31365 (Delmore et al., 2011), and GSE43392 (Puissant et al., 2013) were downloaded from Gene Expression Omnibus (GEO) (https://www.ncbi.nlm.nih.gov/geo). Raw data were subjected to intensity normalization using affy package in R (Bioconductor), followed by log transformation and quantile normalization. Normalized data were checked for quality and determined to be free of outliers by analysis using box plots, density plots and MA plots. Differential expression genes after BRD4 inhibition were calculated using a linear model provided by the limma package in R based on the cutoffs: 2 for absolute fold change, 0.05 for p value.
HRD Score Acquisition from HRD Signature HRD signature consisting of 230 differentially expressed genes was obtained as previously described (Peng et al., 2014). Normalized gene expression data (GSE29799, GSE66048, GSE44929, GSE85840, GSE31365, and GSE43392) after BRD4 inhibition were subjected to unsupervised clustering with these 230 genes. HRD scores were determined by calculating the Pearson's correlations between median centered gene expression levels for HRD signature and gene expression levels for a given sample (Peng et al., 2014).

[1] = Toxicity analysis in the T127 model (blood counts, serum chemistry); type: in vivo, mice; settings: compared with the vehicle group
Source text: Mice were sacrificed when tumor diameter reached maximum limits of 2.5 cmat Day 22 for tissue harvest and blood collection 3 hr after the final treatment.

U2OS DR-GFP cells = test: U2OS DR-GFP HR reporter assay; type: cell-based, Human; settings: 100 nM for 24 hr, then I-Sce1 for 48 hr
Source text: HR Repair Analysis: U2OS DR-GFP cells contain a single copy of the HR repair reporter substrate DR-GFP, which contains two nonfunctional GFP open reading frames, including one GFP-coding sequence that is interrupted by a recognition site for the I-SceI endonuclease. Expression of I-SceI leads to formation of a DSB in the I-SceI GFP allele, which can be repaired by HR using the nearby GFP sequence lacking the N- and C-termini, thereby producing functional GFP that can be detected by flow cytometry. […] Then, cells were transfected with a plasmid expressing I-SceI (pCBASce) for 48 hr. Cells transfected with an empty vector were used as a negative control. GFP-expressing plasmid (pEGFP-C1) was used for transfection efficiency control. Flow cytometry analysis was performed to detect GFP^+ cells using FACScalibur with CellQuest software (Becton Dickinson). The repair efficiency was scored as the percentage of GFP^+ cells.

OVCAR3 xenografts = test: OVCAR3 xenograft; type: in vivo, mice; settings: Olaparib 100 mg/kg, AZD5153 2.5 mg/kg, oral gavage, daily, 35 days
Experimental: 6 weeks old female C.B-17 scid mice were purchased from Charles River Laboratories and used for OVCAR3 xenografts. Tumor cells were injected into female mice of approximately 8-10 weeks of age. All mice were housed under pathogen-free conditions at AstraZeneca AAALAC accredited facility. All animal experiments were conducted in compliance with the National Institute of Health guidelines for animal research and approved by the Institutional Animal Care and Use Committee of AstraZeneca.
OVCAR3 Xenograft: […] OVCAR3 cells were injected subcutaneously in the right flank of mice. Mice were randomized based on tumor volumes using stratified sampling and enrolled into control and treatment groups. Dosing began when mean tumor size reached approximately 200 mm^3 and continued for 35 days.

HOC1 cells [2] = test: RPA and RAD51 foci immunofluorescence; type: cell-based, Human; settings: for RAD51 nuclear foci: after PARPi or IR, compared with vehicle
Experimental: Immunofluorescence Staining and Microscopy: Briefly, cells were washed with PBS and fixed with 4% paraformaldehyde for 5 min, followed by permeabilization with 0.5% NP-40 and 1% Triton X-100 for 10 min Cells were then blocked with 5% FBS for 30 min and incubated with primary antibody (anti-RAD51, PC130, 1:100; anti-g-H2AX (Ser139), clone JBW301, 1:1000 from Millipore Corp; anti-RPA32, ab2175, 1:500 from Abcam) for 2 hr, followed by secondary antibody incubation for 1 hr at room temperature. Slides were sealed in mounting medium containing DAPI (Vector Laboratories, H1200) for further image acquisition. TE-2000 imaging acquisition system (Nikon) equipped with a 60× objective lens was used to capture images. Stained was quantified by ImageJ.

HOC1 cells [3] = test: Alkaline comet assay; type: cell-based, Human; settings: 200 nM each, 48 hr
Experimental: Alkaline Single-Cell Agarose Gel Electrophoresis (Comet) Assays: Alkaline comet assays were performed with Comet Assay Kit (Trevigen) using manufacturer's instructions. Briefly, cell suspensions were embedded in LM (low melting) Agarose and deposited on comet slides. Slides were incubated for 1 hr at 4° C. in lysis solution, followed by immersing slides in freshly prepared alkaline unwinding solution (pH >13) for 20 min at room temperature in the dark. Electrophoresis was carried out for 30 min at 21 V in electrophoresis solution (pH >13). Slides were then stained with SYBR™ Gold (Thermo Fisher Scientific). Tail DNA content was analyzed with Comet score 1.5 software. DNA strand breakage was expressed as “comet tail moment”. The tail moment was measured for a minimum of 50 cells per sample, and average damage from 3 independent experiments was calculated.

DT40 cells = test: Viability dose response in DT40 WT and PARP1-/- cells; type: cell-based, Chicken
Experimental: as §1

[4] = system: CtIP promoter and enhancer; test: ChIP-qPCR at CtIP promoter and enhancer; type: cell-based, Human; settings: HOC1; 200 nM, 24 hr
Experimental: Chromatin Immunoprecipitation (ChIP-qPCR): ChIP assays were performed with EZ-Magna ChIP™ A/G Chromatin Immunoprecipitation Kit (Millipore Corp) as described in manufacturer's instructions. Briefly, cells were crosslinked with 1% formaldehyde. After cell lysis, isolated nuclei were subjected to sonication for chromatin fragmentation. Sheared chromatin was diluted in diluted buffer, and divided into aliquots for immunoprecipitation. Anti-BRD4 antibody (1:50, #13440S, Cell Signaling), anti-H3K27ac antibody (1:100, ab4729, Abcam), anti-H3K4M1 antibody (1:200, ab8895, Abcam), anti-Pol II antibody (1:100, sc-47701, Santa Cruz) or normal Rabbit IgG control (1:200, #2729, Cell Signaling) were added to chromatin samples, followed by overnight incubation at 4° C., with rotation. Antibody-chromatin complexes were captured using magnetic protein A/G beads. Purified DNAs were subjected to quantitative PCR (qPCR). All primers are list in Table 2.

[5] = system: OVCAR8 and WU-BC3 PDX tumors; test: IHC of OVCAR8 and WU-BC3 PDX tumors at study termination; set-up: species or system mice; settings: mouse, in vivo
Experimental: Immunohistochemical Staining (IHC) Tissues were fixed in 10% formalin overnight and embedded in paraffin. […] paraffin embedded sections were first deparaffinized in xylene. IHC were carried out with EnVision Detection Systems HRP. Rabbit/Mouse (DAB+) kit (Agilent) following manufacturer's instructions. Endogenous peroxidase was blocked by incubation with 0.3% hydrogen peroxide for 15 min. Antigen retrieval was performed by boiling the slides in citrate buffer (10 mM, pH 6.0) in a water bath for […]. Slides were rinsed in PBS Tween 0.05% and blocked for […] with 5% bovine serum albumin (BSA). Slide were incubated overnight at 4° C. with primary antibodies (anti-BRD4,
#13440S, 1:200; anti-CtIP, #9201S, 1:200 from Cell Signaling Technology; anti-RAD51, PC130, 1:100; anti-g-H2AX (Ser139), clone JBW301, 1:500 from Millipore Corp; and anti-pRPA32(S4/8), A300-245A, 1:1000 from Bethyl Laboratories), followed by 1 hr with Labelled Polymer-HRP at room temperature. Negative controls were treated identically, but without primary antibody. Subsequently, slides were incubated with DAB+ Chromogen. Slides were counterstained with hematoxylin. After mounting, slides were observed under microscope and photographed.
OVCAR8 Xenografts: 3×10^6 OVCAR8 cells were injected s.c. into mouse flanks in a 1:1 mix of PBS and Matrigel. […] Tumor volumes were calculated using […]. […]

HOC1 cells [6] = test: Detection of ssDNA by BrdU immunofluorescence under non-denaturing conditions; type: cell-based, Human; settings: 4 hr after 10 Gy irradiation
Experimental: Detection of ssDNA by Immunofluorescence: Cells were grown in […] BrdU for two doubling times before irradiation. […] Cells were placed on ice 10 min before irradiation and kept on ice during the irradiation with 10 Gy. […] BrdU was stained (anti-BrdU, ab8152, 1:100 from Abcam) in non-denaturing conditions which enables detection of BrdU incorporated in ssDNA. TE-2000 imaging acquisition system (Nikon) equipped with a 60× objective lens was used to capture images. Stained was quantified by ImageJ.

CtIP = test: Western blot of CtIP and DNA damage response proteins; type: cell-based, Human
Experimental: Protein lysates were analyzed by RPPA in MDACC CCSG (The Cancer Center Support Grant) supported RPPA Core. Antibodies and approaches are described at the RPPA website (https://www.mdanderson.org/research/research-resources/core-facilities/functional-proteomics-rppa-core.html). For visualization, 2D and 3D, concentrations and time were averaged for each cell line. Heat map represents “rank-ordered” changes induced by BRD4i treatment, calculated by summing median-centered protein amount normalized to DMSO. Western Blot: To prepare whole cell lysates, cells were lysed with RIPA buffer (Thermo Fisher Scientific) supplemented with Halt™ Protease and Phosphatase Inhibitor (EDTA-free) Cocktail (Thermo Fisher Scientific). After thorough mixing and incubation at 4° C. for 10 min, lysates were centrifuged at 15,000 g at 4° C. for 15 min, and supernatants were collected. To prepare subcellular fraction of nuclear soluble and chromatin-bound fraction, cells were treated with indicated drugs, and then cells were collected. For fractionation, a Subcellular Protein Fractionation kit (Thermo Fisher Scientific) was used following the manufacturer's instructions. The protein content of the cell was determined, and the cellular lysates were separated by 10% SDS-PAGE, and electro-transferred onto polyvinylidene difluoride (PVDF) membranes. After being blocked with 5% non-fat milk in TBST, the membranes were incubated with primary antibodies at 4° C. overnight, followed by 1:2000 horseradish peroxidase (HRP)-conjugated secondary antibody (Abcam) for 1 hr. Bands were visualized using a Pierce™ ECL Western Blotting Substrate (Thermo Fisher Scientific). Primary antibodies used are listed in Key Resources Table.

C[C@]1(c2nc3c(C(N)=O)cccc3[nH]2)CCCN1 [ABT888]
synergy with JQ1 at fixed PARPi concentration (cancer cell lines): synergized with JQ1 | synergistic effects in combinations with BRD4i (JQ1) (cancer cell lines): synergistic effects were maintained | PARP trapping activity (PARP): weakest | concentration required for PARP trapping (PARP): 50 mM

COc1nnc2ccc(N3CCC(c4ccc(OCCN5CCN(C)C(=O)[C@H]5C)cc4)CC3)nn12 [AZD5153]
HRD score (HRD gene signature): increased HRD score | numbers of white blood cells [1]: slight decrease but remained in the normal range | HR repair (percentage of GFP+ cells) (U2OS DR-GFP cells): attenuated HR repair | tumor growth inhibitions (TGI) (OVCAR3 xenografts): 83% | RAD51 nuclear foci (HOC1 cells [2]): decreased RAD51 nuclear foci

Cn1ncnc1[C@H]1c2n[nH]c(=O)c3cc(F)cc(c23)N[C@@H]1c1ccc(F)cc1 [BMN673]
DNA damage (comet assay) (HOC1 cells [3]): modestly induced DNA damage | sensitivity of PARP1-/- DT40 (DT40 cells): resistant | synergy with JQ1 at fixed PARPi concentration (cancer cell lines): synergized with JQ1 | sensitivity of cell lines to PARPi alone (cancer cell lines; OAW42, A2780CP, A2780, UWB1.289, OC316, ARK1, HCC1187, BT20, MDA-MB-436): highly sensitive | PARP trapping activity (PARP): most active

Cc1sc2c(c1C)C(c1ccc(Cl)cc1)=N[C@@H](CC(=O)OC(C)(C)C)c1nnc(C)n1-2 [JQ1]
DNA damage (comet assay) (HOC1 cells [3]): modestly induced DNA damage | BRD4 association with the CtIP promoter and enhancer [4]: decreased | H3K27Ac, H3K4Me1 at the CtIP promoter and enhancer [4]: reduced | association of RNA Pol-II with the CtIP promoter and enhancer [4]: decreased association | HRD score (HRD gene signature): increased HRD score | HR repair (percentage of GFP+ cells) (U2OS DR-GFP cells): attenuated HR repair | CtIP and pRPA32 (S4/8) (IHC) [5]: decreased | gH2AX (IHC) [5]: increased | resensitization of PARPi-resistant cells to PARPi (cancer cell lines; A2780CP_R, OAW42_R and OC316_R): resensitized | PARPi resistance mediated by 53BP1 knockdown (cancer cell lines; BRCA1 knockdown MCF10A, BRCA1 mutant UWB1.289 and COV362 cells): reversed resistance | RAD51 nuclear foci (HOC1 cells [2]): decreased RAD51 nuclear foci | RPA focus formation (HOC1 cells [2]; in response to PARPi or IR): severely impaired | formation of ssDNA (HOC1 cells [6]): significantly reduced | expression of other MRN complex proteins (CtIP; 200 nM, 48 hr, HeyA8, OVCAR8, HOC7 cells): did not markedly alter | CtIP and pRPA32 (S4/8) protein (CtIP; HOC1 and HeyA8 cells, dose and time course): decreased CtIP and phosphorylated RPA32 | RAD51 levels (CtIP; HeyA8 and HOC7, 200 nM, 48 hr): modestly decreased | BRCA1 levels (CtIP; MCAS, 200 nM, 48 hr): modestly decreased | CtIP protein (CtIP; all lines assessed, 200 nM, 48 hr): consistently decreased

NC(=O)c1cccc2cn(-c3ccc([C@@H]4CCCNC4)cc3)nc12 [Niraparib]
PARP trapping activity (PARP): intermediate in activity

O=C(c1cc(Cc2n[nH]c(=O)c3ccccc23)ccc1F)N1CCN(C(=O)C2CC2)CC1 [Olaparib]
tumor growth inhibitions (TGI) (OVCAR3 xenografts): 35% | synergy with JQ1 at fixed PARPi concentration (cancer cell lines): synergized with JQ1 | synergistic effects in combinations with BRD4i (JQ1) (cancer cell lines): synergistic effects were maintained

CNCc1ccc(-c2[nH]c3cc(F)cc4c3c2CCNC4=O)cc1 [Rucaparib]
PARP trapping activity (PARP): intermediate in activity
